Common to all, as to experiment: NCI tumour cell line growth inhibition, 48 h
The subject of test [1] is KM12.
Test [2] has as its system RPMI-8226.
In test [3] the test system is NCI-H23.
Test [4] concerns EKVX.
Test [5] concerns RXF 393.
For test [6], the system named is NCI-H226.
Test [7] relates to SK-MEL-5.
Test [8] deals with NCI/ADR-RES.
Test [9] deals with SW-620.
Test [10] relates to NCI-H460.
The subject of test [11] is K562.
The test system of test [12] is Hs-578T.
The test system of test [13] is HCT-116.
Test [14] concerns UACC-257.
For test [15], the system named is A498.
Test [16] has as its system HCT-15.
The subject of test [17] is M14.
The test system of test [18] is LOX IMVI.

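Five concentrations, 48 hours, 96-well plates. Abbreviation: GI50, concentration required for 50% inhibition of growth.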 Active and inactive are the calls of the source. Rule as the data show it: active = GI50 up to about 1.1 µM and inactive = higher. Some results are limits rather than exact numbers.

11 compounds from ChEMBL document CHEMBL1201862, “PubChem BioAssay data set” (2004) can be followed below.

On to `Nn1c(Cc2ccc(Cl)cc2)n[nH]c1=O`, for which the GI50 in test [1], in test [2], in test [3], in [4], in [5] and in [6] was > 100 µM (inactive) throughout. The GI50 in test [7], in [8], in test [9], in [10], in [11] and in test [12] was > 100 µM (inactive) throughout. The GI50 in test [13] was > 100 µM (inactive); in [14], > 100 µM (inactive); in test [15] it was > 100 µM (inactive); in test [16], greater than 100 µM; in test [17], > 100 µM (inactive); in test [18], > 100 µM (inactive).

`COc1ccc2c(CCNS(=O)(=O)c3ccccc3)c(C(C)=O)[nH]c2c1`: the GI50 was 54.2 µM (inactive) in test [1]; > 100 µM (inactive) in [2]; 8.3 µM (inactive) in test [3]; > 100 µM (inactive) in [4]; > 100 µM (inactive) in test [5]; > 100 µM (inactive) in [6]. In addition, the GI50 in test [7] is > 42.8 µM (inactive); in [8], 63.2 µM (inactive); in test [9], > 100 µM (inactive); in test [10], > 100 µM (inactive); in [11], > 74 µM (inactive); in test [12], 46 µM (inactive). Besides, the GI50 in test [13] is 45.3 µM (inactive); in [14], > 32.4 µM (inactive); in test [15], > 62.7 µM (inactive); in [16] it was greater than 75.2 µM; in test [17] it was > 64.4 µM (inactive); in test [18], > 68.2 µM (inactive).

As to `COc1cc(/C=N\O)nc(-c2ccccn2)c1`, the GI50 is 0.55 µM (active) in [1]; 0.337 µM (active) in [2]; 0.51 µM (active) in test [3]; 0.195 µM (active) in [4]; 0.363 µM (active) in [5]; 0.363 µM (active) in test [6]. In addition, the GI50 in test [7] is 0.298 µM (active); in [8], 0.36 µM (active); in test [9], 0.664 µM (active); in test [10] it was 0.227 µM (active); in test [11], 0.399 µM (active); in test [12] it was 47.2 µM (inactive). Besides, the GI50 is 0.301 µM (active) in [13]; 2.4 µM (inactive) in [14]; 1.3 µM (inactive) in test [15]; 0.092 µM in test [16]; 0.259 µM (active) in test [17]; 0.221 µM (active) in [18].

As to `NCc1nnn(Cc2ccccc2)c1N`, the GI50 in test [1], in test [2], in test [3], in test [4], in [5] and in [6] was > 100 µM (inactive) each time. Moreover, the GI50 in [7], in test [8], in [9], in [10], in test [11] and in test [12] was > 100 µM (inactive) throughout. In addition, the GI50 was > 100 µM (inactive) in [13]; > 100 µM (inactive) in test [14]; > 100 µM (inactive) in test [15]; greater than 100 µM in [16]; > 100 µM (inactive) in [17]; > 100 µM (inactive) in test [18].

`COc1cc2cc(C(=O)N3CC(CCl)c4c3cc(NC(=O)C(C)(C)c3ccccc3[N+](=O)[O-])c3ccccc43)[nH]c2c(OC)c1OC` (stereo not drawn): the GI50 was 1.86 µM (inactive) in test [1]; 173 µM (inactive) in [2]; 0.524 µM (active) in test [3]; 11.7 µM (inactive) in test [4]; 1.42 µM (inactive) in test [5]; 5.14 µM (inactive) in test [6]. Also, the GI50 in [7] is 1.77 µM (inactive); in [8], 1.12 µM (active); in test [9], 1.09 µM (active); in test [10], 0.158 µM (active); in test [11], 0.991 µM (active); in test [12] it was 9.33 µM (inactive). The GI50 is 0.393 µM (active) in test [13]; 6.65 µM (inactive) in test [14]; 0.78 µM (active) in test [15]; 1.98 µM in test [16]; 1.75 µM (inactive) in test [17]; 0.993 µM (active) in test [18].

For `COc1cc(C2C3=C(COC3=O)OC(C)(C)Oc3cc4c(cc32)OCO4)cc(OC)c1OC` (stereo not drawn), the GI50 in [1] is 0.212 µM (active); in test [2] it was 0.444 µM (active); in test [3] it was 0.384 µM (active); in test [4], 0.366 µM (active); in test [5], 0.259 µM (active); in test [6], 0.885 µM (active). Besides, the GI50 is 0.348 µM (active) in [7]; 0.299 µM (active) in [8]; 0.348 µM (active) in [9]; 0.365 µM (active) in [10]; 0.353 µM (active) in test [11]; 0.301 µM (active) in test [12]. Besides, the GI50 in test [13] was 0.318 µM (active); in test [14], 1.17 µM (inactive); in test [15], 0.281 µM (active); in test [16] it was 0.372 µM; in [17], 0.281 µM (active); in [18] it was 0.331 µM (active).

`CC[C@H]1C=CCC[C@@]2(C[C@@H]3CC[C@@H]4[C@H](C(=O)OCCCCCCCCCCCCCCCC(=O)O)[C@]5(CCC[C@@H](C)O5)NC(=[N+]34)N2)O1` [CRAMBESCIDIN 657]: the GI50 in test [1] is 0.207 µM (active); in [2], 0.109 µM (active); in test [3], 0.488 µM (active); in [4], 1.39 µM (inactive); in test [5] it was 0.216 µM (active); in test [6] it was 0.273 µM (active). Further, the GI50 is 0.104 µM (active) in test [7]; 4.61 µM (inactive) in [8]; 0.189 µM (active) in [9]; 0.188 µM (active) in [10]; 0.121 µM (active) in [11]; 0.571 µM (active) in test [12]. Also, the GI50 in [13] is 0.169 µM (active); in test [14], 0.12 µM (active); in [15], 0.306 µM (active); in test [16] it was 0.525 µM; in test [17] it was 0.1 µM (active); in [18], 0.12 µM (active).

For the compound `COC1=CC(=O)c2c(c(-c3nc(C)cs3)cn2C)C1=O`, the GI50 in test [1] was 3.95 µM (inactive); in test [2], 2.52 µM (inactive); in test [3], 2.25 µM (inactive); in [4], 8.65 µM (inactive); in [5], 20.4 µM (inactive); in test [6] it was 16.7 µM (inactive). Moreover, the GI50 is 1.2 µM (inactive) in [7]; 4 µM (inactive) in [8]; 3.24 µM (inactive) in [9]; 1.25 µM (inactive) in test [10]; 2.62 µM (inactive) in test [11]; 2.21 µM (inactive) in test [12]. The GI50 in test [13] was 2.99 µM (inactive); in test [14], 1.82 µM (inactive); in test [15], 5.82 µM (inactive); in test [16] it was 1.28 µM; in [17], 2.13 µM (inactive); in [18], 0.804 µM (active).

In the case of `CC1(C)[C@@H]2CC[C@@]1(C)[C@H](O)[C@@H]2SCc1ccccc1`, the GI50 in test [1] was 17.8 µM (inactive); in test [2], 27.5 µM (inactive); in test [3], 14.1 µM (inactive); in test [4], 15.3 µM (inactive); in test [5], 18.5 µM (inactive); in test [6], 18.7 µM (inactive). In addition, the GI50 was 15.4 µM (inactive) in [7]; 15.8 µM (inactive) in test [8]; 25.5 µM (inactive) in test [9]; 19.2 µM (inactive) in test [10]; 25.2 µM (inactive) in test [11]; 14.2 µM (inactive) in [12]. For the same compound, the GI50 in test [13] is 17.2 µM (inactive); in [14], 14 µM (inactive); in test [15] it was < 0.01 µM (active); in test [16], 14.8 µM; in test [17], 15 µM (inactive); in test [18], 18.5 µM (inactive).

With `COc1ccc2nc3ccc(OC)cc3c(SCCCl)c2c1`, the GI50 in test [1] is 17.5 µM (inactive); in test [2], 2.95 µM (inactive); in test [3], 16 µM (inactive); in test [4], > 49.9 µM (inactive); in [5], > 20.6 µM (inactive); in test [6], > 48.4 µM (inactive). Moreover, the GI50 in test [7] is 8.87 µM (inactive); in test [8] it was 16.3 µM (inactive); in test [9] it was 12.6 µM (inactive); in [10], 33.9 µM (inactive); in test [11] it was 9.66 µM (inactive); in test [12], 5.07 µM (inactive). The GI50 is 6.22 µM (inactive) in [13]; > 46.1 µM (inactive) in test [14]; 31.1 µM (inactive) in test [15]; 12.7 µM in test [16]; 12.3 µM (inactive) in test [17]; 5.98 µM (inactive) in test [18].

Take `CCOC(=O)/C=C\C(C#N)(C#N)/N=C/c1ccsc1`: the GI50 in test [1] is 19.5 µM (inactive); in [2], 1.33 µM (inactive); in test [3], 9.68 µM (inactive); in test [4], 16.5 µM (inactive); in test [5] it was 2.26 µM (inactive); in test [6], 14.8 µM (inactive). The GI50 in test [7] was 20 µM (inactive); in test [8], 3.84 µM (inactive); in test [9], 1.62 µM (inactive); in test [10], 20.5 µM (inactive); in [11], 3.13 µM (inactive); in test [12], 19.5 µM (inactive). In addition, the GI50 was 2.17 µM (inactive) in [13]; 6.81 µM (inactive) in [14]; 19 µM (inactive) in test [15]; 2.96 µM in test [16]; 3.08 µM (inactive) in [17]; 4.06 µM (inactive) in [18].
